The text below walks through data of patent publication US10392423B2, “Peptide-based inhibitors of MLL/SET1 family core complexes” (The Research Foundation for the State University of New York, priority 2017, dated 2019).

The Kd is the concentration at which binding is half-saturated. One may read the IC50 as the concentration that inhibits the measured activity by half.

The target of experiment [1] is T1, WDR5 (Homo sapiens, UniProt P61964).
T1 construct: the experimental cell containing full-length WDR5 (20 μM); His; made in house; host or cells: Escherichia coli Rosetta II (DE3) pLysS
The note with it: ITC; reported values of other inhibitors; read-out: Dissociation Constant Kd towards WDR5; cited from earlier work. In general terms: Isothermal titration calorimetry measures the heat released or taken up as one component is titrated into another.

The target in experiment [2] is T1, WDR5. Put plainly: Isothermal titration calorimetry (ITC) binding to WDR5. How it is done:
Isothermal titration calorimetry (ITC). Purified full-length WDR5 and Win6mer peptide were extensively dialyzed in separate Micro Float-A-Lyzer® Dialysis Devices, MWCO 500-1000 Da (Spectrum Labs) against sample buffer consisting of 20 mM Tris pH 7.5, 300 mM NaCl, 1 mM TCEP, 1 μM ZnCl2 buffer. ITC experiments were carried out at 20° C. using a VP-ITC micro-calorimeter (MicroCal). After an initial delay of 120 sec, Win6mer (200 μM) was titrated into the experimental cell containing full-length WDR5 (20 μM) over the course of 45 injections, 5 μL each. Reference power was set to 10 μCal/sec and stirring speed was set to 295 rpm. Data were integrated using NITPIC. SEDPHAT was used to fit the integrated data to a single-site heterogeneous association model, using simulated annealing and Maxquardt-Levenberg algorithms. Automatic confidence interval search with projection method was applied to estimate the error of the determined thermodynamic parameters. Confidence interval was set to 2σ (95%). ITC figure was generated using GUSSI.

Another experiment deals with T2, SETd1B core complex (Homo sapiens, UniProt P61964).
T2 construct: Full-length WRAD constructs in pHis parallel expression vectors; His; made in house; host or cells: Escherichia coli Rosetta II (DE3) pLysS
Put plainly: Core complex methyltransferase inhibition, scintillation proximity assay. The following applies: for IC50: Win6mer up to 50 μM, read-out: Inhibition Efficiency, IC50. The format is biochemical. How it is done:
(§1) MLL Core Complex inhibition by Win6mer. Assay conditions: MLL core complexes were reconstituted by mixing purified GST-SET domains (MLL1, MLL4, MLL2, MLL3, SETd1A, and SETd1B) with WDR5, RbBP5, ASH2L, and DPY-30 in stoichiometric amounts (GST-SET:W:R:A:D 1:1:1:1:2). The activity of each core complex was assessed under the following conditions: 2 μM SET1 core complex, 80 μM biotinylated H3 substrate peptide, 0.68 μM ^3H-AdoMet (0.5 μCi) at 15° C. in Assay Buffer (50 mM Tris pH 8.5, 200 mM NaCl, 5 mM MgCl2, 5% glycerol), in a total volume of 10 μL. Core complex- or H3 peptide-only reactions incubated with ^3H-AdoMet served as background controls. Reactions were quenched with 167 mM EDTA (ethylenediaminetetraacetic acid). Each sample was diluted in 50 μL Buffer 2 containing 0.2 mg/mL BSA and then transferred to 96-well streptavidin-coated FlashPlate® Microplates (Perkin Elmer). Samples were incubated overnight at 4° C. to allow binding of the biotinylated H3 peptide to the streptavidin-coated surface prior to scintillation counting in Hidex Sense microplate reader (LabLogic). Determination of linear ranges: The activity of MLL core complexes towards H3K4me0, H3K4me1, or H3K4me2 substrate peptides was assayed as described above. Reactions were quenched at varying time points with 167 mM EDTA and prepared for scintillation counting on Streptavidin FlashPlates®. A plot of counts per minute (CPM) vs. time was constructed from which the linear range was determined. Single time points within the linear range were selected for each SET1 core complex for performing inhibition studies: H3K4me0: MLL1, MLL2*, SETd1A, and SETd1B*—5 min, MLL4—3 min, MLL3—15 min. H3K4me1: MLL1—5 min, MLL4—3 min, SETd1A—15 min, SETd1B—45 min. H3K4me2: SETd1A—2 hr, SETd1B—1 hr. (*1 μM of MLL2 and SETd1B core complex were used for H3K4me0 reactions). Dose response curves: Inhibition studies were performed in order to determine the efficiency of Win6mer as an MLL core complex inhibitor. The activity of each MLL core complex towards H3 substrate peptides was assessed (as described above) with increasing doses of Win6mer (0, 0.005, 0.05, 0.10, 0.5, 1.0, 2.5, 5.0, 10.0, and 50 μM). Reactions were quenched with 167 mM EDTA at the determined time points and prepared for scintillation counting on streptavidin-coated FlashPlastes® as described above.
(§2) The activity of SET1 core complexes at each Win6mer concentration point was normalized to the activity of the uninhibited core complex to obtain the relative methyltransferase activity. Inhibition data were plotted as relative methyltransferase activity vs. log [Win6mer] (nM). The Win6mer IC50 values for MLL1 and SETd1A core complexes were determined by fitting the data to a dose response with variable slope equation in Sigma Plot.
(In general: Scintillation proximity formats need no separation of bound from free tracer.)

For a further experiment, the target named is T3, MLL2 core complex (Homo sapiens, UniProt P61964).
T3 construct: Full-length WRAD constructs in pHis parallel expression vectors; His; made in house; host or cells: Escherichia coli Rosetta II (DE3) pLysS
The experiment is described as above. The class given is biochemical. The note with it: H3K4me0 substrate. How it is done: as §1, §2

A further experiment addresses T4, MLL4 core complex (Homo sapiens, UniProt P61964).
T4 construct: Full-length WRAD constructs in pHis parallel expression vectors; His; made in house; host or cells: Escherichia coli Rosetta II (DE3) pLysS
The experiment is described as above. The format is biochemical. The following applies: for IC50: 2 μM core complex, Win6mer up to 50 μM, read-out: Inhibition Efficiency, IC50. The procedure: as §1, §2

The next experiment has as its target T5, MLL1 core complex (Homo sapiens, UniProt P61964).
T5 construct: Full-length WRAD constructs in pHis parallel expression vectors; His; made in house; host or cells: Escherichia coli Rosetta II (DE3) pLysS
The description is as above. The format is biochemical. The procedure: as §1, §2

The target of the next experiment is T6, MLL3 core complex (Homo sapiens, UniProt P61964).
T6 construct: Full-length WRAD constructs in pHis parallel expression vectors; His; made in house; host or cells: Escherichia coli Rosetta II (DE3) pLysS
Described as above. The format is biochemical. The note with it: H3K4me0 substrate. The procedure: as §1, §2

Experiment [3] deals with isolated SET1 family SET domains. Description: Isolated SET domain methyltransferase activity with Win6mer (radiometric, fluorography/LSC). The note with it: 100 μM Win6mer; isolated SET domains without WRAD. The class given is biochemical, human. The procedure: Methyltransferase Assays. MLL core complex Win motif mutants. […] Reactions were quenched with SDS-loading buffer and separated by SDS-PAGE using a 4-12% Bis-Tris gel (Life Technologies) run at 200V for 30 minutes. The gels were enhanced at room temperature for 30 minutes (Enlightning, Perkin Elmer Inc.) then dried for 2.5 hours at 72° C. under constant vacuum. The dried gels were exposed to film (Kodak Biomax MS Film) at −80° C. for 4-24 hours prior to developing. Liquid scintillation counting (LSC) was performed by excising gel bands corresponding to histone H3 peptides, which were dissolved in 750 μL of Solvable (Perkin Elmer Inc.), incubated at room temperature for 30 minutes followed by incubation at 50° C. for 3 hours. The solubilized volume of each sample was transferred to liquid scintillation vials containing 10 mL of Ultima Gold XL liquid scintillation cocktail (Perkin Elmer Inc.). Samples were dark adapted for 1 hour then counted for 5 minutes each with a two-sigma error cut-off using an all-purpose scintillation counter (Beckman Coulter).
MLL SET domains treated with Win6mer. Isolated SET1 family SET domains (5 μM) were incubated with 1 μCi of ^3H-AdoMet (Perkin Elmer Inc.) and 100 μM of H3K4me0, H3K4me1, or H3K4me2 peptides, with and without 100 μM Win6mer, in Assay Buffer at 15° C. for 8 hours. Reactions were quenched with SDS-loading buffer. […]

In experiment [4] the target is T7, SET1 family core complex assembly (WDR5, RbBP5, ASH2L) (Homo sapiens, UniProt P61964).
T7 construct: host or cells: MCF-7 cell extract
Put plainly: GST pull-down of endogenous WRAD components from MCF-7 cell extracts with or without Win6mer. The class given is binding. The following applies: 10 μM Win6mer. The procedure: For pull-down assays using cell extracts, a 3 μM concentration of each GST-tagged SET domain was incubated with 100 μg of MCF-7 cell extract for 16 hours at 4° C. Following the initial incubation, 20 μL of a 50:50 slurry of glutathione agarose beads was added to each sample and incubated for an additional 2 hours at 4° C. Samples were washed 3× in radioimmunoprecipitation (RIPA) buffer. Samples were eluted from beads by boiling the samples at 95° C. in SDS-loading buffer for 10 minutes. Samples of the supernatant were separated on a 4-12% Bis-Tris gel and transferred to a PVDF membrane at 30V for 1 hour. PVDF membranes were blocked for 1 hour with a 5% non-fat milk solution then incubated with primary antibody (1:2,000) for 1 hour at room temperature. Blots were washed 4 times then incubated with an HRP-conjugated anti-rabbit secondary antibody (1:5,000) for 1 hour at room temperature. Blots were washed an additional 4 times, then visualized by chemiluminesence (Clarity Western, BioRad) on a BioRad ChemiDoc MP Imager using the chemiluminesence setting.

Structures are written as SMILES. “And” between values parts separate entries of the source, which are not always exact repeats. Equal entries are not always repeated. Where two headings read alike, the source gives them in different places.

Regarding `COC(=O)c1ccc(N2CCN(C)CC2)c(NC(=O)c2cccc(OC)c2)c1` [WDR5-0103], the Kd on WDR5 [1] is 450 nM.

Consider `CC(=O)N[C@@H](C)C(=O)N[C@@H](CCCNC(=N)N)C(=O)N[C@H](C(=O)N[C@@H](CCC(=O)O)C(=O)N[C@H](C(=O)N[C@@H](Cc1ccc(O)cc1)C(N)=O)C(C)C)[C@@H](C)O` [Win6mer, Ac-ARTEVY-NH2], for which the “increase in binding affinity over the best naturally occurring Win motif sequence” value at WDR5 [2] is approximately 18 fold. On WDR5 [2] (read-out: Dissociation Constant Kd towards WDR5), the Kd is ~3 nM and 2.9 nM. In addition, the “methyltransferase activity of core complex on treatment” value on SETd1B core complex (H3K4me0 substrate), on MLL2 core complex, on MLL4 core complex (H3K4me0 substrate) and on MLL3 core complex was “uninhibited” in each case. The half-inhibitory concentration (IC50) on SETd1B core complex (H3K4me0 substrate, 1 μM core complex) is more than 50000 nM; at SETd1B core complex (H3K4me1 substrate, 2 μM core complex), more than 50000 nM; on SETd1B core complex (H3K4me2 substrate, 2 μM core complex) it was more than 50000 nM; at MLL2 core complex (1 μM core complex, Win6mer up to 50 μM, read-out: Inhibition Efficiency, IC50) it was more than 50000 nM; on MLL4 core complex (H3K4me0 substrate) it was more than 50000 nM; on MLL4 core complex (H3K4me1 substrate), more than 50000 nM. The half-inhibitory concentration (IC50) at MLL1 core complex (1.8 μM of enzyme complex assayed, read-out: IC50) is 2200 nM; on MLL1 core complex (2 μM of enzyme complex assayed, read-out: average IC50) it was 2200 nM; at MLL1 core complex (H3K4me1 substrate, 2 μM core complex, read-out: Inhibition Efficiency, IC50 [95% confidence interval]), 2200 nM; on MLL3 core complex (2 μM core complex, Win6mer up to 50 μM, read-out: Inhibition Efficiency, IC50) it was more than 50000 nM. Moreover, in [3], the “effect on intrinsic monomethyltransferase activity of SET1 family members” value was “did not affect”. Further, the “RbBP5/ASH2L binding of MLL2, MLL3, MLL4 and SETd1B” value in experiment [4] was “only a modest reduction”. For the same compound, the “RbBP5/ASH2L interaction with MLL1 and SETd1A complexes” value in experiment [4] is “near total loss”. Also, the “ability of all six SET1 family members to interact with endogenous WDR5” value in experiment [4] is “greatly reduced”.
